Key:
human PDE5 = target: T1, human PDE5 (Homo sapiens, UniProt O76074); test: Inhibition of PDE5 activity (platelet lysate, SPA assay); type: biochemical; conditions: 0.5 μM cGMP, read-out: PDE5 Inhibitory values measured as -logIC50 (converted)
T1 construct: from tissue; host or cells: human platelets from fresh donor blood (platelet lysate)
In short: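 Human platelet lysate (10,000 g supernatant) served as PDE5 source, with 1 μM motapizone and 10 nM PDE2 inhibitor added, in Tris pH 7.4, 5 mM Mg2+, BSA. Substrate 0.5 μM [3H]cGMP, 10–20% conversion; 5 min preincubation then 15 min at 37 °C, stopped by SPA beads with IBMX. IC50 by non-linear regression.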

PDE4B1 = target: T2, PDE4B1 (Homo sapiens, UniProt Q07343); test: Inhibition of PDE4 activity (PDE4B1, SPA assay); type: biochemical; conditions: recombinant PDE4B1, 0.5 μM cAMP; read-out: PDE4B1 Inhibitory values measured as -logIC50 (converted)
T2 construct: made in house; host or cells: SF21 insect cells (baculovirus; virus made in SF9 cells, pCR-Bac vector)
T2 sequence (Q07343 whole entry): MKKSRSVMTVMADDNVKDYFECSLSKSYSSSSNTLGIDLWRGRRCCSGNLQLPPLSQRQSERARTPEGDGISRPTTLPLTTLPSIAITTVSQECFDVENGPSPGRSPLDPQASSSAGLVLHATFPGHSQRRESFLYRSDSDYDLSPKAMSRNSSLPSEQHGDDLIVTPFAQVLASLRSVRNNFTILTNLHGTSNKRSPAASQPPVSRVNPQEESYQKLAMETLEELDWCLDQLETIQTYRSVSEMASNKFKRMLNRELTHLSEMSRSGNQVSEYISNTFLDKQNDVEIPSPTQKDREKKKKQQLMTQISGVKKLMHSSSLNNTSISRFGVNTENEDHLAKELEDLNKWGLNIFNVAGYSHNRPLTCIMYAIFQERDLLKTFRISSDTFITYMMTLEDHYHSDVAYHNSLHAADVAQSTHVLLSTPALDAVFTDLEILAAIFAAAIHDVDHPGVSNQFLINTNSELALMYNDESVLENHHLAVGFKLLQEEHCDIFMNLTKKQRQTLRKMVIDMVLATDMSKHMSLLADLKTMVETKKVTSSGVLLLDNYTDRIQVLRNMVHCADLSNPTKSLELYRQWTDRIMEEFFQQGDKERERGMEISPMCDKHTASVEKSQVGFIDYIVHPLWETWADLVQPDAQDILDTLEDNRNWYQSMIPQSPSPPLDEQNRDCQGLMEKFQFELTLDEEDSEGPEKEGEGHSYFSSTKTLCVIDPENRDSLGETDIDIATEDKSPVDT
In short: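 Baculovirus-expressed enzyme from SF21 cell 1000×g supernatant; substrate 0.5 μM [3H]cAMP in 20 mM Tris pH 7.4, 5 mM Mg2+, 0.1 mg/ml BSA, 10-20% conversion. 5 min preincubation at 37 °C, 15 min reaction, stopped by SPA beads with IBMX; IC50 by non-linear regression.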

Compound	IC50 (human PDE5) [nM]	IC50 (PDE4B1) [nM]
COc1ccc(C2=NN(C3CCN(C(=O)[C@@H](Cc4ccc(F)c(F)c4)NC(=O)c4c[nH]c5c(-c6c(OCC7CC7)ccc7c6OCO7)ncnc45)CC3)C(=O)[C@@H]3CCCC[C@H]23)cc1OC [Example 19, 4-[5-(cyclopropylmethoxy)-1,3-benzodioxol-4-yl]-N-[(2R)-3-(3,4-difluorophenyl)-1-{4-[(4aS,8aR)-4-(3,4-dimethoxyphenyl)-1-oxo-4a,5,6,7,8,8a-hexahydrophthalazin-2(1H)-yl]piperidin-1-yl}-1-oxopropan-2-yl]-5H-pyrrolo[3,2-d]pyrimidine-7-carboxamide]	1 to 10	1 to 10
COc1ccc(C2=NN(C3CCN(C(=O)[C@@H](CN(C)C)NC(=O)c4c[nH]c5c(-c6c(OCC7CC7)ccc7c6OCO7)ncnc45)CC3)C(=O)[C@@H]3CCCC[C@H]23)cc1OC [Example 96, 4-[5-(cyclopropylmethoxy)-1,3-benzodioxol-4-yl]-N-[(2R)-1-{4-[(4aS,8aR)-4-(3,4-dimethoxyphenyl)-1-oxo-4a,5,6,7,8,8a-hexahydrophthalazin-2(1H)-yl]piperidin-1-yl}-3-(dimethylamino)-1-oxopropan-2-yl]-5H-pyrrolo[3,2-d]pyrimidine-7-carboxamide]	1 to 10	1 to 10
COc1ccc(C2=NN(C3CCN(C(=O)[C@@H](Cc4ccccc4)NC(=O)c4c[nH]c5c(-c6c(OCC7CC7)ccc7c6OCO7)ncnc45)CC3)C(=O)C(C)(C)C2)c2c1OC(C)(C)C2 [Example 115]	1 to 10	< 1
CCOc1ccc(C[C@@H](NC(=O)c2c(C)[nH]c3c(-c4cc(F)c(OC)cc4OCC4CC4)ncnc23)C(=O)N2CCC(N3N=C(c4ccc(OC)c(OC)c4)[C@H]4CCCC[C@H]4C3=O)CC2)cc1 [Example 8, 4-[2-(cyclopropylmethoxy)-5-fluoro-4-methoxyphenyl]-N-[(2R)-1-{4-[(4aS,8aR)-4-(3,4-dimethoxyphenyl)-1-oxo-4a,5,6,7,8,8a-hexahydrophthalazin-2(1H)-yl]piperidin-1-yl}-3-(4-ethoxyphenyl)-1-oxopropan-2-yl]-6-methyl-5H-pyrrolo[3,2-d]pyrimidine-7-carboxamide]	< 1	1 to 10
COc1ccc(C2=NN(C3CCN(C(=O)[C@@H](CCC(=O)N4CCCC4)NC(=O)c4c[nH]c5c(-c6c(OCC7CC7)ccc7c6OCO7)ncnc45)CC3)C(=O)[C@@H]3CCCC[C@H]23)cc1OC [Example 105, 4-[5-(cyclopropylmethoxy)-1,3-benzodioxol-4-yl]-N-[(2R)-1-{4-[(4aS,8aR)-4-(3,4-dimethoxyphenyl)-1-oxo-4a,5,6,7,8,8a-hexahydrophthalazin-2(1H)-yl]piperidin-1-yl}-1,5-dioxo-5-(pyrrolidin-1-yl)pentan-2-yl]-5H-pyrrolo[3,2-d]pyrimidine-7-carboxamide]	1 to 10	1 to 10
COc1ccc(C2=NN(C3CCN(C(=O)[C@@H](CC(C)C)NC(=O)c4c[nH]c5c(-c6c(OCC7CC7)ccc7c6OCO7)ncnc45)CC3)C(=O)[C@@H]3CCCC[C@H]23)cc1OC [Example 95, 4-[5-(cyclopropylmethoxy)-1,3-benzodioxol-4-yl]-N-[(2R)-1-{4-[(4aS,8aR)-4-(3,4-dimethoxyphenyl)-1-oxo-4a,5,6,7,8,8a-hexahydrophthalazin-2(1H)-yl]piperidin-1-yl}-4-methyl-1-oxopentan-2-yl]-5H-pyrrolo[3,2-d]pyrimidine-7-carboxamide]	< 1	< 1
COc1ccc(C2=NN(C3CCN(C(=O)[C@@H](Cc4ccccc4C(F)(F)F)NC(=O)c4c[nH]c5c(-c6c(OCC7CC7)ccc7c6OCO7)ncnc45)CC3)C(=O)[C@@H]3CCCC[C@H]23)cc1OC [Example 33, 4-[5-(cyclopropylmethoxy)-1,3-benzodioxol-4-yl]-N-{(2R)-1-{4-[(4aS,8aR)-4-(3,4-dimethoxyphenyl)-1-oxo-4a,5,6,7,8,8a-hexahydrophthalazin-2(1H)-yl]piperidin-1-yl}-1-oxo-3-[2-(trifluoromethyl)phenyl]propan-2-yl}-5H-pyrrolo[3,2-d]pyrimidine-7-carboxamide]	< 1	1 to 10
COc1cc(OCC2CC2)c(-c2ncnc3c(C(=O)N[C@@H](Cc4cccc(C)c4)C(=O)N4CCC(N5N=C(c6ccc(OC)c(OC)c6)[C@H]6CCCC[C@H]6C5=O)CC4)c(C)[nH]c23)cc1F [Example 2, 4-[2-(cyclopropylmethoxy)-5-fluoro-4-methoxyphenyl]-N-[(2S)-1-{4-[(4aS,8aR)-4-(3,4-dimethoxyphenyl)-1-oxo-4a,5,6,7,8,8a-hexahydrophthalazin-2(1H)-yl]piperidin-1-yl}-3-(3-methylphenyl)-1-oxopropan-2-yl]-6-methyl-5H-pyrrolo[3,2-d]pyrimidine-7-carboxamide]	1 to 10	1 to 10

More lines, now with the values ahead:

IC50 (human PDE5) [nM]	IC50 (PDE4B1) [nM]	Compound
1 to 10	1 to 10	COc1ccc(C2=NN(C3CCN(C(=O)[C@H](Cc4ccc(F)cc4)NC(=O)c4c[nH]c5c(-c6c(OCC7CC7)ccc7c6OCO7)ncnc45)CC3)C(=O)[C@@H]3CCCC[C@H]23)cc1OC [Example 47, 4-[5-(cyclopropylmethoxy)-1,3-benzodioxol-4-yl]-N-[(2S)-1-{4-[(4aS,8aR)-4-(3,4-dimethoxyphenyl)-1-oxo-4a,5,6,7,8,8a-hexahydrophthalazin-2(1H)-yl]piperidin-1-yl}-3-(4-fluorophenyl)-1-oxopropan-2-yl]-5H-pyrrolo[3,2-d]pyrimidine-7-carboxamide]
1 to 10	< 1	COc1ccc(C2=NN(C3CCN(C(=O)[C@H](NC(=O)c4c[nH]c5c(-c6c(OCC7CC7)ccc7c6OCO7)ncnc45)[C@H](C)c4ccccc4)CC3)C(=O)[C@@H]3CCCC[C@H]23)cc1OC [Example 50, 4-[5-(cyclopropylmethoxy)-1,3-benzodioxol-4-yl]-N-[(2R,3R)-1-{4-[(4aS,8aR)-4-(3,4-dimethoxyphenyl)-1-oxo-4a,5,6,7,8,8a-hexahydrophthalazin-2(1H)-yl]piperidin-1-yl}-1-oxo-3-phenylbutan-2-yl]-5H-pyrrolo[3,2-d]pyrimidine-7-carboxamide]
< 1	< 1	COc1ccc(C2=NN(C3CCN(C(=O)[C@@H](CCc4ccccc4)NC(=O)c4c[nH]c5c(-c6c(OCC7CC7)ccc7c6OCO7)ncnc45)CC3)C(=O)[C@@H]3CCCC[C@H]23)cc1OC [Example 65, 4-[5-(cyclopropylmethoxy)-1,3-benzodioxol-4-yl]-N-[(2R)-1-{4-[(4aS,8aR)-4-(3,4-dimethoxyphenyl)-1-oxo-4a,5,6,7,8,8a-hexahydrophthalazin-2(1H)-yl]piperidin-1-yl}-1-oxo-4-phenylbutan-2-yl]-5H-pyrrolo[3,2-d]pyrimidine-7-carboxamide]
< 1	1 to 10	COc1ccc(C2=NN(C3CCN(C(=O)[C@H](CC4CCCCC4)NC(=O)c4c[nH]c5c(-c6c(OCC7CC7)ccc7c6OCO7)ncnc45)CC3)C(=O)C(C)(C)C2)cc1OC [Example 94, N-[(2S)-3-cyclohexyl-1-{4-[3-(3,4-dimethoxyphenyl)-5,5-dimethyl-6-oxo-5,6-dihydropyridazin-1(4H)-yl]piperidin-1-yl}-1-oxopropan-2-yl]-4-[5-(cyclopropylmethoxy)-1,3-benzodioxol-4-yl]-5H-pyrrolo[3,2-d]pyrimidine-7-carboxamide]
1 to 10	1 to 10	COc1ccc(C2=NN(C3CCN(C(=O)[C@H](Cc4ccccc4)NC(=O)c4c[nH]c5c(-c6c(OCC7CC7)ccc7c6OCO7)ncnc45)CC3)C(=O)C(C)(C)C2)cc1OC [Example 110, 4-[5-(cyclopropylmethoxy)-1,3-benzodioxol-4-yl]-N-[(2S)-1-{4-[3-(3,4-dimethoxyphenyl)-5,5-dimethyl-6-oxo-5,6-dihydropyridazin-1(4H)-yl]piperidin-1-yl}-1-oxo-3-phenylpropan-2-yl]-5H-pyrrolo[3,2-d]pyrimidine-7-carboxamide]
1 to 10	1 to 10	COc1ccc(C2=NN(C3CCN(C(=O)[C@@H](Cc4ccc(Br)cc4)NC(=O)c4c[nH]c5c(-c6c(OCC7CC7)ccc7c6OCO7)ncnc45)CC3)C(=O)[C@@H]3CCCC[C@H]23)cc1OC [Example 99, N-[(2R)-3-(4-bromophenyl)-1-{4-[(4aS,8aR)-4-(3,4-dimethoxyphenyl)-1-oxo-4a,5,6,7,8,8a-hexahydrophthalazin-2(1H)-yl]piperidin-1-yl}-1-oxopropan-2-yl]-4-[5-(cyclopropylmethoxy)-1,3-benzodioxol-4-yl]-5H-pyrrolo[3,2-d]pyrimidine-7-carboxamide]
< 1	< 1	COc1ccc(C2=NN(C3CCN(C(=O)[C@@H](Cc4ccccc4)NC(=O)c4c(C)[nH]c5c(-c6c(OCC7CC7)ccc7c6OCO7)ncnc45)CC3)C(=O)C(C)(C)C2)cc1OC [Example 66, 4-[5-(cyclopropylmethoxy)-1,3-benzodioxol-4-yl]-N-[(2R)-1-{4-[3-(3,4-dimethoxyphenyl)-5,5-dimethyl-6-oxo-5,6-dihydropyridazin-1(4H)-yl]piperidin-1-yl}-1-oxo-3-phenylpropan-2-yl]-6-methyl-5H-pyrrolo[3,2-d]pyrimidine-7-carboxamide]

— US20160108049A1 (TAKEDA Gmbh, priority 2011, published 2016)
